The results in this text go back to patent US20170217976A1, “6-(AMINO ACID)-MORPHINAN DERIVATIVES IN COMBINATION WITH PERMEATION […] FOR USE AS AN ORALLY, […], TRA[…] NASALLY AD[…]” (C[…], priority 2014, published 2017).

Read-outs that look alike come from different tables or passages of the source.

The Ki is the equilibrium dissociation constant of an inhibitor or competing ligand from its target.

For test [1], the target named is T1, DOR (Rattus norvegicus, UniProt P33533).
T1 construct: from tissue
The test is described as follows: Opioid receptor binding, DOR, rat brain membranes.

For test [2], the target named is T2, MOR (Rattus norvegicus, UniProt P33535).
T2 construct: from tissue
The experiment in a line: Opioid receptor binding, MOR, rat brain membranes.

Test [3] has as its target T3, KOR (Cavia porcellus, UniProt P41144).
T3 construct: from tissue
The test is described as follows: Opioid receptor binding, KOR, guinea pig brain membranes.

The mark [4] stands for this setting: Binding Ki DOR, Table 2-6, rat brain membranes.
The mark [5] stands for this setting: Binding Ki MOR, Table 2-6, rat brain membranes.
[6] abbreviates: Binding Ki KOR, Table 2-6, guinea pig brain membranes.
[7] abbreviates: Binding Ki (nM) DOR, in vitro binding assay, rat brain membranes.
The mark [8] stands for this setting: Binding Ki DOR, Table 1-4, rat brain membranes.
Setting [9] is: Binding Ki (nM) MOR, in vitro binding assay, rat brain membranes.
Setting [10] is: Binding Ki MOR, Table 1-4, rat brain membranes.
Where [11] appears, read: Binding Ki (nM) KOR, in vitro binding assay, guinea pig brain membranes.
The mark [12] stands for this setting: Binding Ki KOR, Table 1-4, guinea pig brain membranes.
[13] abbreviates: in vitro binding assay, rat brain membranes, read-out: Binding Ki (nM) DOR.
Setting [14] is: in vitro binding assay, rat brain membranes, read-out: Binding Ki (nM) MOR.
[15] abbreviates: in vitro binding assay, guinea pig brain membranes, read-out: Binding Ki (nM) KOR.

T2 sequence (P33535 whole entry): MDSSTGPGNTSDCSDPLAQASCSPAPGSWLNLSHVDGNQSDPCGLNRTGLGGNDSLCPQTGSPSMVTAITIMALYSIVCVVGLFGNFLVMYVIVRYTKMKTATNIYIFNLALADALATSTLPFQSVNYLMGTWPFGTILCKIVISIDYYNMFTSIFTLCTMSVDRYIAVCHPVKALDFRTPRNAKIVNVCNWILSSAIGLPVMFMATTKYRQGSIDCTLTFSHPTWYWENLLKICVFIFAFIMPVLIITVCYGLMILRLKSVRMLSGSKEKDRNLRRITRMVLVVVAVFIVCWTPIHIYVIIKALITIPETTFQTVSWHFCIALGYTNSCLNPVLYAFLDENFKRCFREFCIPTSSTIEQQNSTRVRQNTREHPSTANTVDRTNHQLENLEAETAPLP
T3 sequence (P41144 whole entry): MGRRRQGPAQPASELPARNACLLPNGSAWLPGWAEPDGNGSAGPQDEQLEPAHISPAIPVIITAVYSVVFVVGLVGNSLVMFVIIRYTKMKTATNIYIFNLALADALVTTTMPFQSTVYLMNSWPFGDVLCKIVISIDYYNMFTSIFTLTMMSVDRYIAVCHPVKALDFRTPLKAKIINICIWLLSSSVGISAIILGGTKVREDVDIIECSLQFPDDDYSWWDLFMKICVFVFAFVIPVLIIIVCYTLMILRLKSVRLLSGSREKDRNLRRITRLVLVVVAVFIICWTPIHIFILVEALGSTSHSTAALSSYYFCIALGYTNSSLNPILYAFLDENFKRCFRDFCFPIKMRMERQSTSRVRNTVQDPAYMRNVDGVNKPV
T1 sequence (P33533 whole entry): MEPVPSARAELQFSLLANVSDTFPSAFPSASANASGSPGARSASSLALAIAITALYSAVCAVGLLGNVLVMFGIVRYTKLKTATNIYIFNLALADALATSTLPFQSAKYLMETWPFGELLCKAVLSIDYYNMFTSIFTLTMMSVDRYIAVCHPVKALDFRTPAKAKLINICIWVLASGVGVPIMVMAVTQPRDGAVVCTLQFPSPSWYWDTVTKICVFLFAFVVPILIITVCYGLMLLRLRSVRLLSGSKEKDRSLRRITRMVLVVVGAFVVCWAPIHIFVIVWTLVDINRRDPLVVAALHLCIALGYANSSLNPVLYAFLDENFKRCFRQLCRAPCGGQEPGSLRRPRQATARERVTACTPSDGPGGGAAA

With `COC12CCC(NC(C(=O)O)C(C)C)C3Oc4c(O)ccc5c4C31CCN(CC1CC1)C2C5` (single isomer, unassigned) [Compound 70], the inhibition constant Ki in test [1] (Binding Ki DOR, Table 1-6, rat brain membranes) worked out at 0.71 nM; in test [1] (setting [4]), 0.71 nM; in test [2] (Binding Ki MOR, Table 1-6, rat brain membranes), 0.62 nM; in test [2] (setting [5]), 0.62 nM; in test [3] (Binding Ki KOR, Table 1-6, guinea pig brain membranes), 3.54 nM; in test [3] (setting [6]) it was 3.54 nM.

On to `CO[C@@]12CC[C@@H](N[C@@H](CCC(N)=O)C(=O)O)[C@@H]3Oc4c(O)ccc5c4[C@@]31CCN(C)[C@@H]2C5` [Compound 18], for which the Ki in test [1] (setting [7]) came to 4.87 nM; in test [1] (setting [8]), 4.87 nM; in test [2] (setting [9]), 2.48 nM; in test [2] (setting [10]) it was 2.48 nM; in test [3] (setting [11]) it was 290 nM; in test [3] (setting [12]) it was 290 nM.

As to `CO[C@@]12CC[C@H](NCC(=O)OC(C)(C)C)[C@@H]3Oc4c(O)ccc5c4[C@@]31CCN(CC1CC1)[C@@H]2C5` [61-tBu ester], the Ki is 0.5 nM in test [1] (setting [4]), 0.43 nM in test [2] (setting [5]) and 1.41 nM in test [3] (setting [6]).

In the case of `CO[C@@]12CC[C@H](N[C@@H](C(=O)OC(C)(C)C)C(C)C)[C@@H]3Oc4c(O)ccc5c4[C@@]31CCN(C)[C@@H]2C5` [30-t-Bu ester], the Ki in test [1] (setting [13]) was 0.093 nM; in test [2] (setting [14]), 0.11 nM; in test [3] (setting [15]), 22.7 nM.

For `CCOC(=O)CN[C@H]1CC[C@@]2(OC)[C@H]3Cc4ccc(O)c5c4[C@@]2(CCN3C)[C@H]1O5` [HS730-Et ester], the Ki was determined as 0.96 nM in test [1] (setting [7]), 0.28 nM in test [2] (setting [9]) and 8.57 nM in test [3] (setting [11]).

Regarding `CC[C@H](C)[C@H](N[C@@H]1CC[C@@]2(OC)[C@H]3Cc4ccc(O)c5c4[C@@]2(CCN3CC2CC2)[C@H]1O5)C(=O)OC(C)(C)C` [78-tBu ester], the Ki came to 0.52 nM in test [1] (setting [4]), 0.98 nM in test [2] (setting [5]) and 5.67 nM in test [3] (setting [6]).

With `CO[C@@]12CC[C@H](N[C@@H](CC(C)C)C(=O)O)[C@@H]3Oc4c(O)ccc5c4[C@@]31CCN(CC1CC1)[C@@H]2C5` [Compound 76], the Ki worked out at 2.2 nM in test [1] (setting [4]), 0.72 nM in test [2] (setting [5]) and 7.87 nM in test [3] (setting [6]).

Turning to `CO[C@@]12CC[C@@H](N[C@@H](Cc3ccccc3)C(=O)OC(C)(C)C)[C@@H]3Oc4c(O)ccc5c4[C@@]31CCN(CC1CC1)[C@@H]2C5` [58-tBu ester], the Ki in test [1] (setting [4]) was determined as 4.56 nM; in test [2] (setting [5]), 2.41 nM; in test [3] (setting [6]) it was 13.1 nM.

For the compound `CO[C@@]12CC[C@@H](N[C@H](C(=O)OC(C)(C)C)C(C)C)[C@@H]3Oc4c(O)ccc5c4[C@@]31CCN(C)[C@@H]2C5` [29-t-Bu ester], the Ki in test [1] (setting [7]) was determined as 0.86 nM; in test [2] (setting [9]), 1.03 nM; in test [3] (setting [11]), 214 nM.

Turning to `CO[C@@]12CC[C@@H](N[C@@H](CC(C)C)C(=O)O)[C@@H]3Oc4c(O)ccc5c4[C@@]31CCN(CC1CC1)[C@@H]2C5` [Compound 77], the Ki in test [1] (setting [4]) amounted to 1.13 nM; in test [2] (setting [5]) it was 1.96 nM; in test [3] (setting [6]) it was 11 nM.

`CO[C@@]12CC[C@@H](N[C@@H](CC(C)C)C(=O)O)[C@@H]3Oc4c(O)ccc5c4[C@@]31CCN(C)[C@@H]2C5` [Compound 41]: the Ki in test [1] (setting [7]) turned out to be 1.01 nM; in test [1] (setting [8]), 1.01 nM; in test [2] (setting [9]), 1.32 nM; in test [2] (setting [10]), 1.32 nM; in test [3] (setting [11]), 297 nM; in test [3] (setting [12]), 297 nM.

Regarding `CO[C@@]12CC[C@@H](N[C@@H](C(=O)OC(C)(C)C)C(C)C)[C@@H]3Oc4c(O)ccc5c4[C@@]31CCN(C)[C@@H]2C5` [31-t-Bu ester], the Ki in test [1] (setting [13]) amounted to 0.21 nM; in test [2] (setting [14]) it was 1.98 nM; in test [3] (setting [15]), 206 nM.

Regarding `CO[C@@]12CC[C@@H](N[C@@H](CCSC)C(=O)OC(C)(C)C)[C@@H]3Oc4c(O)ccc5c4[C@@]31CCN(C)[C@@H]2C5` [24-t-Bu ester], the Ki in test [1] (setting [7]) is 0.81 nM; in test [2] (setting [9]), 1.83 nM; in test [3] (setting [11]), 166 nM.

Turning to `CO[C@@]12CC[C@H](N[C@H](C(=O)OC(C)(C)C)C(C)C)[C@@H]3Oc4c(O)ccc5c4[C@@]31CCN(C)[C@@H]2C5` [28-t-Bu ester], the results for the Ki in test [1] (setting [13]), in test [2] (setting [14]) and in test [3] (setting [15]) were 0.18 nM, 0.25 nM and 10.5 nM, respectively.

`CO[C@@]12CC[C@@H](NCCCC(=O)OC(C)(C)C)[C@@H]3Oc4c(O)ccc5c4[C@@]31CCN(C)[C@@H]2C5` [16-t-Bu ester]: the Ki in test [1] (setting [13]) stood at 1.63 nM; in test [2] (setting [14]) it was 0.54 nM; in test [3] (setting [15]), 8.79 nM.

Turning to `CN1CC[C@]23c4c5ccc(O)c4O[C@H]2[C@H](N[C@@H](Cc2ccccc2)C(=O)O)CC[C@@]3(O)[C@H]1C5` [Compound 12], the Ki is 8.29 nM in test [1] (Table 1-4, rat brain membranes, read-out: Binding Ki DOR); 6.91 nM in test [2] (Table 1-4, rat brain membranes, read-out: Binding Ki MOR); 634 nM in test [3] (Table 1-4, guinea pig brain membranes, read-out: Binding Ki KOR).
